Patent EP1120414A1, “DISUBSTITUTED MALEIMIDE COMPOUNDS AND MEDICINAL UTILIZATION THEREOF” (Japan Tobacco Inc., priority 1998, dated 2000)
Where two headings read alike, the source gives them in different places.

What was measured:
PKC β II = target: T1, PKC β II (Homo sapiens, UniProt P05771); experiment: PKC enzyme assay (BIOTRAK Protein kinase C enzyme assay system, 32P-ATP phosphorylation of peptide […]); format: biochemical; conditions: for Ratio α/β: IC50 PKC α / IC50 PKC β II
T1 construct: purchased CALBIOCHEM
T1 sequence (P05771 other isoform, or with tags, fused parts or gaps): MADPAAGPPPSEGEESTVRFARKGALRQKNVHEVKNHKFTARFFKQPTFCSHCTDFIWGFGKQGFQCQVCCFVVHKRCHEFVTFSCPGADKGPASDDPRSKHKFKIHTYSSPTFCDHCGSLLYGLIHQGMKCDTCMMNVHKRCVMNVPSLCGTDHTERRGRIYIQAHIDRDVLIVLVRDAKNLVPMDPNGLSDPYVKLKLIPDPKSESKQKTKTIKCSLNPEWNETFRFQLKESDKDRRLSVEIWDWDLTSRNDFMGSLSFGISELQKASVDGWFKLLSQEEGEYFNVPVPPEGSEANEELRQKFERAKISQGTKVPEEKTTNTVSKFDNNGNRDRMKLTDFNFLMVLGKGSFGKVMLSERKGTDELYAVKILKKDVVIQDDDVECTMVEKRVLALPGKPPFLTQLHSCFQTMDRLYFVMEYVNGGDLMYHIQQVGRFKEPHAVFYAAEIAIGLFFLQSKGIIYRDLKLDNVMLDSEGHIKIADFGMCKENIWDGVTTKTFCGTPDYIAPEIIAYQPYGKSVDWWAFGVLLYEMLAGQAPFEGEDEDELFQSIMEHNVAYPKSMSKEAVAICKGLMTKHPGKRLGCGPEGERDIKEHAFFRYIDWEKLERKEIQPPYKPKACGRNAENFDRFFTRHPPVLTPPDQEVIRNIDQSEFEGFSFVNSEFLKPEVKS

PKC α = target: T2, PKC α (Homo sapiens, UniProt P17252); experiment: as above; format: biochemical
T2 construct: purchased CALBIOCHEM
How it was run: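 Recombinant human PKC (400 ng/ml solution) phosphorylated the supplied peptide with [γ-32P]ATP in calcium, phosphatidylserine/PMA, DTT and Mg-ATP buffer, 15 min at 37°C. Compounds were tested at 1 nM-10 µM final. Phosphocellulose-bound radioactivity relative to DMSO gave inhibition, from which IC50 was calculated.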

[1] = Protein Kinase C, Human Recombinant, test substance 1 nM-10 µM, 37°C, 15 minutes, read-out: Inhibition of PKC activity IC50 PKC β II
[2] = Protein Kinase C, Human Recombinant, test substance 1 nM-10 µM, 37°C, 15 minutes, read-out: Inhibition of PKC activity IC50 PKC α
[3] = read-out: Inhibition of PKC activity IC50 PKC β II, Protein Kinase C, Human Recombinant, test substance 1 nM-10 µM, 37°C, 15 minutes
[4] = read-out: Inhibition of PKC activity IC50 PKC α, Protein Kinase C, Human Recombinant, test substance 1 nM-10 µM, 37°C, 15 minutes

Compound	Ratio α/β (PKC β II)	IC50 (PKC β II; [1])	IC50 (PKC α; [2])	IC50 (PKC β II; [3])	IC50 (PKC α; [4])	IC50 (PKC β II)	IC50 (PKC α)
NC(=O)C1CCCN1CCCn1cc(C2=C(Nc3ccccc3)C(=O)NC2=O)c2ccccc21 (stereo not shown) [Example 2-24, 3-[1-{3-(2-carbamoylpyrrolidin-1-yl)propyl}-1H-indol-3-yl]-4-(phenylamino)-1H-pyrrole-2,5-dione]	42	66 nM	2750 nM	–	–	–	–
CN(C)CCCn1cc(C2=C(Nc3ccccc3)C(=O)NC2=O)c2ccccc21 [Example 2-8, 3-[1-(3-dimethylaminopropyl)-1H-indol-3-yl]-4-(phenylamino)-1H-pyrrole-2,5-dione]	38	12 nM	460 nM	–	–	–	–
O=C1NC(=O)C(c2c3n(c4ccccc24)CC[C@H](CN2CCOCC2)C3)=C1Nc1ccccc1 [Example 4-26]	85	–	–	9 nM	768 nM	–	–
O=C1NC(=O)C(c2cn(CCCn3ccnc3)c3ccccc23)=C1Nc1ccccc1 [Example 2-36, 3-[1-(3-imidazol-1-ylpropyl)-1H-indol-3-yl]-4-(phenylamino)-1H-pyrrole-2,5-dione]	–	5 nM	331 nM	–	–	–	–
Cc1c(C2=C(Nc3ccccc3)C(=O)NC2=O)c2ccccc2n1CCCN1CCCCC1 [Example 2-53, 3-[2-methyl-1-(3-piperidinopropyl)-1H-indol-3-yl]-4-(phenylamino)-1H-pyrrole-2,5-dione]	102	98 nM	> 10000 nM	–	–	–	–
CN(C)CCN(C)CCCn1cc(C2=C(Nc3ccccc3)C(=O)NC2=O)c2ccccc21 [Example 2-14, 3-[1-{3-[N-(2-dimethylaminoethyl)-N-methylamino)propyl}-1H-indol-3-yl]-4-(phenylamino)-1H-pyrrole-2,5-dione]	70	40 nM	2790 nM	–	–	–	–
CCN(C)C[C@H]1Cc2c(C3=C(Nc4ccccc4)C(=O)NC3=O)c3ccccc3n2C1 [Example 4-61]	96	5 nM	–	–	481 nM	–	–
O=C1NC(=O)C(c2cn(CC(O)CO)c3ccccc23)=C1Nc1ccccc1 (stereo not shown) [Example 2-44, 3-[1-(2,3-dihydroxypropyl)-1H-indol-3-yl]-4-(phenylamino)-1H-pyrrole-2,5-dione]	31	261 nM	8160 nM	–	–	–	–
CNC[C@H]1Cc2c(C3=C(Nc4ccccc4)C(=O)NC3=O)c3ccccc3n2C1 [Example 4-70]	159	–	–	1 nM	159 nM	–	–
Cc1nccn1CCCn1cc(C2=C(Nc3cccc(Cl)c3)C(=O)NC2=O)c2ccccc21 [Example 2-42, 3-[(3-chlorophenyl)amino]-4-[1-{3-(2-methylimidazol-1-yl)propyl}-1H-indol-3-yl]-1H-pyrrole-2,5-dione]	45	10 nM	452 nM	–	–	–	–
O=C1NC(=O)C(c2c3n(c4ccccc24)CC[C@H](CN2CCSCC2)C3)=C1Nc1ccccc1 [Example 4-30]	131	–	–	5 nM	654 nM	–	–
O=C1NC(=O)C(c2c3n(c4ccccc24)CCCC(Cn2ccnc2)C3)=C1Nc1ccccc1 (stereo not shown) [Example 4-38]	244	–	–	41 nM	> 10000 nM	–	–
O=C1NC(=O)C(c2cn(CCCN3CCC(N4CCCC4)CC3)c3ccccc23)=C1Nc1ccccc1 [Example 2-49, 3-[1-(3-(4-pyrrolidinylpiperidino)propyl}-1H-indol-3-yl]-4-(phenylamino)-1H-pyrrole-2,5-dione]	–	–	–	–	–	8 nM	723 nM
CCN(CCCn1cc(C2=C(Nc3ccccc3)C(=O)NC2=O)c2ccccc21)CCOC [Example 2-15, 3-[1-{3-[N-ethyl-N-(2-methoxyethyl)amino]propyl}-1H-indol-3-yl]-4-(phenylamino)-1H-pyrrole-2,5-dione]	77	35 nM	2680 nM	–	–	–	–
O=C1NC(=O)C(c2c3n(c4ccccc24)C[C@@H](CN2CCCC2)C3)=C1Nc1ccccc1 [Example 4-67]	68	8 nM	–	–	542 nM	–	–
Cc1cn(CCCn2cc(C3=C(Nc4cccc(Cl)c4)C(=O)NC3=O)c3ccccc32)cn1 [Example 2-58, 3-[(3-chlorophenyl)amino]-4-[1-{3-(4-methyl-imidazol-1-yl)propyl}-1H-indol-3-yl]-1H-pyrrole-2,5-dione]	47	18 nM	842 nM	–	–	–	–
CN1CCCC(Cn2cc(C3=C(Nc4ccccc4)C(=O)NC3=O)c3ccccc32)C1 (stereo not shown) [Example 3-3, 3-[1-{(1-methylpiperidin-3-yl)methyl}-1H-indol-3-yl]-4-(phenylamino)-1H-pyrrole-2,5-dione]	47	57 nM	2650 nM	–	–	–	–
